Consider twelve compounds from patent US11091476B2, “Protein kinase inhibitors, preparation method and medical use thereof” (Gan & Lee Pharmaceuticals, priority 2015, dated 2021).

The test concerns the target CDK6/CyclinD3 (Homo sapiens (Human), UniProt Q00534). Nature of the test: CDK kinase inhibitory activity, ADP-Glo Kinase Assay, CDK6/CyclinD3. To be noted: for CDK1/CDK6: ratio of IC50s, selectivity for CDK6 over CDK1. Type of test: biochemical. The method, then:
Measurement of CDK kinase inhibitory activity of the compounds of this disclosure.
In vitro inhibitory effect of the compounds of the disclosure on CDK (CDK1, CDK4 and CDK6) kinase activity was tested by the following method.
1.1 Instrument and Kit Information
1.2 Experimental Preparation • 1.2.1 Preparation of Kinase Reaction Buffer I: The 5×Reaction Buffer A (Promega; V307A-C) provided in the kit was mixed and diluted with MILLI-Q® H2O and 0.1 M DTT (dithiothreitol) to give 4× kinase buffer, and then MILLI-Q® H2O was further added to finally formulate the solution into 1× Kinase buffer.
1 μl of 10 mM standard substance stock solution was taken and added to 9 μl of kinase reaction buffer I and mixed well; then 90 μl of kinase reaction buffer I was added and mixed well; then 100 μl of kinase reaction buffer I was added and mixed well. The final concentration was 50 μM. • b. 40 μl of kinase reaction buffer II was added into B2 to B10 of a 96-well plate, and 50 μl of the above solution was added into B1; • c. 10 μl of solution was taken from well B1, added into B2, and mixed well; then 10 μl of the resulting solution was taken and added into B3, and dilution was carried out in sequence to B9, so as to obtain control solutions that are diluted by 5-fold sequentially. • (2) Preparation of test compound solution: • a. Test compound solutions at a certain concentration were taken, respectively, diluted with kinase reaction buffer I to a final concentration of 50 μM compound solution; • b. 40 μl of kinase reaction buffer II was added into H2 to H10 of the 96-well plate; and 50 μl of the above solution was added into H1; • c. 10 μl of solution was taken from well H1, added into H2, and mixed well; then 10 μl of the resulting solution was taken and added into H3, and dilution was carried out in sequence to H9, so as to obtain test compound solutions that are diluted by 5-fold sequentially. • 1.2.4 Preparation of a mixed solution of reaction substrate and ATP: • a. Preparation of ATP solution: • 200 μl of 0.1 mM ATP solution: 2 μl of 10 mM ATP was added to 198 μl of kinase reaction buffer I; • 300 μl of 50 μM ATP solution: 150 μl of kinase reaction buffer I was added to 150 μl of the above 0.1 mM ATP solution; • b. Preparation of 300 μl of reaction substrate solution: • 150 μl 1 μg/μl reaction substrate stock solution was added to 150 μl kinase reaction buffer I, and mixed well; • c. The above a/b solutions were mixed to obtain mixed solutions, respectively.
1.3 Experimental process: • 1.3.1: 2 μl of compound solutions of various concentrations were taken, added to a 384-well plate, and centrifuged 3 minutes; • 1.3.2: 4 μl of kinase solution was added to each well, centrifuged at 5000 rpm and 18° C. for 10 minutes, and shaken on a plate shaker for 10 minutes; • 1.3.3: 4 μl of mixed solution of substrate and ATP was added to each well, centrifuged at 5000 rpm and 18° C. for 10 minutes, and shaken on a plate shaker at 37° C. for 90 minutes; • 1.3.4: The 384-well plate was taken out, and allowed to stand to room temperature; • 1.3.5: 10 μl of ADP-GLO™ reagent was added to each well, centrifuged at 5000 rpm and 18° C. for 18 minutes, and shaken on a plate shaker at 25° C. for 40 minutes, and then the reaction was stopped; • 1.3.6: 20 μl of kinase detection reagent was added to each well, centrifuged at 5000 rpm and 18° C. for 10 minutes, and shaken on a plate shaker at 25° C. for 30 minutes; and • 1.3.7: M1000pro MICROPLATE READER was used to read […] values.
The inhibition rate of each compound at each concentration point was calculated by the formula as follows and curve fitting was performed by GraphPad Prism 5 software to obtain the IC50 value.

Sequence of CDK6/CyclinD3 (Q00534 whole entry): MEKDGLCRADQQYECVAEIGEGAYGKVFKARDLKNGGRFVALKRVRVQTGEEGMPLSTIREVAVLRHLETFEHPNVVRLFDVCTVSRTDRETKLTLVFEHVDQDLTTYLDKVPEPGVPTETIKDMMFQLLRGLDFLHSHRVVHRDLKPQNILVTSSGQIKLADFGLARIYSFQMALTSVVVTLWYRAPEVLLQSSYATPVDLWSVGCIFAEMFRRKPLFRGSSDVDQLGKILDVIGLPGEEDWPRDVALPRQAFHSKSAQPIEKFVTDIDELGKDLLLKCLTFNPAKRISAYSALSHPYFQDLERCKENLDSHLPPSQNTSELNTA
Sequence of CDK6/CyclinD3 (P30281 whole entry partner): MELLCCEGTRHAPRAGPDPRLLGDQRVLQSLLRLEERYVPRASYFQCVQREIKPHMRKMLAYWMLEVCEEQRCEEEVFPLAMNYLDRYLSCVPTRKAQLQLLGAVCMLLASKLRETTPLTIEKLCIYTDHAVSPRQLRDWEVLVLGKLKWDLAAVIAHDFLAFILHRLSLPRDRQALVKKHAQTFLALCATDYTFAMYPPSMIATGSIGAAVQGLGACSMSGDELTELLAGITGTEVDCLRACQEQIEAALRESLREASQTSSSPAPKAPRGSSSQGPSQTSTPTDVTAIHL

On to `CCN1CCN(Cc2ccc(Nc3ncc(F)c(-c4cc(F)c5c(c4)C4(CCC4)C(C)=N5)n3)nc2)CC1` [Example 4, N-(5-((4-ethylpiperazin-1-yl)methyl)pyridin-2-yl)-5-fluoro-4-(7′-fluoro-2′-methylspiro[cyclobutane-1,3′-indol]-5′-yl)aminopyrimidine-2-amino], for which 2150 nM corresponded to half-maximal inhibition (IC50). In the case of `CCN1CCN(c2ccc(Nc3ncc(F)c(-c4cc(F)c5c(c4)C4(CCCC4)C(C)=N5)n3)nc2)CC1` [Example 27, N-(5-(4-ethylpiperazin-1-yl)pyridin-2-yl)-5-fluoro-4-(7′-fluoro-2′-methylspiro [cyclopentane-1,3′-indol]-5′-yl)pyrimidine-2-amino], half-maximal inhibition (IC50) was put at 16.2 nM. Turning to `CCC1(C)C(C)=Nc2c(F)cc(-c3nc(Nc4ccc(CN5CCN(C)CC5)cn4)ncc3F)cc21` (stereo not shown) [Example 42, 4-(3-ethyl-7-fluoro-2,3-dimethyl-3H-indol-5-yl)-5-fluoro-N-(5-((4-methylpiperazin-1-yl)methyl)pyridin-2-yl)pyrimidine-2-amino], it took 2.33 nM to reach half-maximal inhibition (IC50). Regarding `CCN1CCN(c2ccc(Nc3ncc(F)c(-c4ccc5c(c4)C(C)(CC)C(C)=N5)n3)nc2)CC1` (stereo not shown) [Example 36, 4-(3-ethyl-2,3-dimethyl-3H-indol-5-yl)-N-(5-(4-ethylpiperazin-1-yl)pyridin-2-yl)-5-fluoropyrimidine-2-amino], half-maximal inhibition (IC50) was put at 3.79 nM and the CDK1/CDK6 stood at 26.65. `CCC1(C)C(C)=Nc2c(F)cc(-c3nc(Nc4ccc(C5CCNCC5)cn4)ncc3F)cc21` (stereo not shown) [Example 11]: the IC50 is 5.62 nM and the CDK1/CDK6 is given as 19.58. `CC1=Nc2c(F)cc(-c3nc(Nc4ccc(C5CCN(C)CC5)cn4)ncc3F)cc2C1(C)C` [Example 31, 5-Fluoro-4-(7-fluoro-2,3,3-trimethyl-3H-indol-5-yl)-N-(5-(1-methylpiperidin-4-yl)pyridin-2-yl)pyrimidine-2-amino] had an IC50 of 58.8 nM. Consider `CC1=Nc2c(F)cc(-c3nc(Nc4ccc(C5CCN(C)CC5)c(C)n4)ncc3F)cc2C12CCCC2` [Example 44, N-(5-(1-methylpiperidin-4-yl)-(6-methylpyridin)-2-yl)-5-fluoro-4-(7′-fluoro-2′-methylspiro[cyclopentane-1,3′-indol]-5′-yl)pyrimidine-2-amino], for which the IC50 was 37.5 nM. `CCN1CCN(Cc2ccc(Nc3ncc(F)c(-c4cc(F)c5c(c4)C(C)(C)C(C)=N5)n3)nc2)CC1` [Example 2, N-(5-((4-ethylpiperazin-1-yl)methyl)pyridin-2-yl)-5-fluoro-4-(7-fluoro-2,3,3-trimethyl-3H-indol-5-yl)pyrimidine-2-amino] returned an IC50 of 159 nM. The same measure, in the same setting: then `CC1=Nc2c(F)cc(-c3nc(Nc4ccc(N5CCN(CC6CC6)CC5)cn4)ncc3F)cc2C12CCCC2` [Example 41, N-(5-(4-(cyclopropylmethyl)piperazin-1-yl)pyridin-2-yl)-5-fluoro-4-(7′-fluoro-2′-methylspiro[cyclopentane-1,3′-indol]-5′-yl)pyrimidine-2-amino], with 76.6 nM. As for `CCC1(C)C(C)=Nc2ccc(-c3nc(Nc4ccc(N5CCNCC5)cn4)ncc3F)cc21` (stereo not shown) [Example 32, 4-(3-ethyl-2,3-dimethyl-3H-indol-5-yl)-5-fluoro-N-(5-(piperazin-1-yl)pyridin-2-yl)pyrimidine-2-amino], 10.1 nM corresponded to half-maximal inhibition (IC50) and the CDK1/CDK6 turned out to be 14.01.

On to `CCN1CCN(c2ccc(Nc3ncc(F)c(-c4cc(F)c5c(c4)C(C)(CC)C(C)=N5)n3)nc2)CC1` (stereo not shown) [Example 19, 4-(3-ethyl-7-fluoro-2,3-dimethyl-3H-indol-5-yl)-N-(5-(4-ethylpiperazin-1-yl)pyridin-2-yl)-5-fluoropyrimidine-2-amino], for which it took 65.5 nM to reach half-maximal inhibition (IC50) and the CDK1/CDK6 was found to be 0.99. The compound `CC1=Nc2c(F)cc(-c3nc(Nc4ccc(OC5CCN(C)CC5)cn4)ncc3F)cc2C12CCCC2` [Example 45, N-(5-((1-methylpiperidin-4-yl)oxy)-pyridin-2-yl)-5-fluoro-4-(7′-fluoro-2′-methylspiro[cyclopentane-1,3′-indol]-5′-yl)pyrimidine-2-amino] displayed an IC50 of 43.9 nM.
